Laboratory results as given in US8187821B2, “Compositions and methods for the modulation of PGRMC1” (University of Utah Research Foundation, priority 2008, dated 2012).

What was measured:
[1] = test system: dap1Δ S. cerevisiae; experiment: Amphotericin B sensitivity of dap1Δ yeast; format: cell-based; details: 37° C; data not shown
Method: PGRMC1 and its homologues have been implicated to be involved in a number of distinct biological processes. […] Additionally, dap1Δ S. cerevisiae appears to be resistant to the polyene antibiotic amphotericin B at 37° C. (data not shown). Amphotericin B functions in a similar manner as nystatin in binding to and depleting membrane ergosterol thereby killing the cell.

[2] = biological target: T1, His10-PGRMC1 (Homo sapiens, UniProt O00264); experiment: Competition of cold competitors with [^3H] progesterone or [^3H] cholesterol for His10-PGRMC1 binding; details: for effect of cold competitor on binding of [^3H] cholesterol: competitor at ten-fold higher concentration; for effect of cold competitor on specific [^3H] progesterone binding: competitor in ten-fold excess
T1 construct: a product containing the full length coding region of PGMRC1 flanked by Nde1 and BamHI restriction sites; made in house; host or cells: E. coli BL21 (DE3) / BL21 codon plus (RIPL); purified bacterial membranes
Method: The standard 10 μL binding reaction contained 10 μp purified membranes (total protein) and 10 μM [^3H] progesterone or [^3H] cholesterol (3,000-5,000 cpm) in buffer A: 20% ethanol. Stock solutions (100 μM) of [^3H] cholesterol and [^3H] progesterone containing ˜4×10^4 cpm/μL, were prepared in 95% ethanol. Reactions were prepared in clear 2.0 mL microcentrifuge tubes on ice. To start the reaction, the microfuge tube was briefly mixed (vortex) and placed at 37° C. Following a 10 to 30 min incubation, the tubes were centrifuged in a microfuge (˜13,000 rpm) for 2 min. The supernatant was carefully removed and the pellet was washed with an additional 10 μL water. After a second round of centrifugation (2 min; 13,000 rpm), the resulting supernatant was combined with the first and the pellet was resuspended in 20 μL H2O, Scintillation fluid (700 μL Wallac Optiflour) was added to each fraction and the fractions were mixed extensively. The fractions were then counted in a multi-well scintillation counter (Wallac Microbeta Triluxmax, Waltham, Mass.) for 30 seconds each. Binding are reported as μ/moles of ligand bound per mg of membrane protein. His10-PGRMC1 (His10 disclosed as SEQ ID NO: 14)-specific binding is reported as the difference in binding between transformed and untransformed bacteria. Experimental deviations from the standard assay conditions are noted in individual figure legends.
To test whether progesterone and cholesterol compete for the same specific binding site, the direct binding of [^3H] progesterone or [^3H] cholesterol to His10-PGRMC1 (His10 disclosed as SEQ ID NO: 14) in the presence of various cold competitors was examined. In these experiments, the standard amount of [^3H] ligand was combined with a cold competitor at either 10 or 100-fold higher concentration and mixed well to ensure homogeneity. These stock ligand solutions were then used in the standard binding assay as described.
The ability of other putative ligands reported in the literature to compete with progesterone binding was examined. […] As a control, cold progesterone (P) was used as a competitor and it was observed that excess cold progesterone competes with [^3H] progesterone for His10-PGRMC1 (His10 disclosed as SEQ ID NO: 14) binding. Contrastingly, binding of [^3H] cholesterol to His10-PGRMC1 (His10 disclosed as SEQ ID NO: 14) was unaffected by the presence of progesterone, ergosterol, or heme at ten-fold higher concentrations (FIG. 9, cholesterol). It was not until competitor concentrations were 100-fold higher than ligand that a reduction of cholesterol binding was observed.

T1 sequence (O00264 whole entry): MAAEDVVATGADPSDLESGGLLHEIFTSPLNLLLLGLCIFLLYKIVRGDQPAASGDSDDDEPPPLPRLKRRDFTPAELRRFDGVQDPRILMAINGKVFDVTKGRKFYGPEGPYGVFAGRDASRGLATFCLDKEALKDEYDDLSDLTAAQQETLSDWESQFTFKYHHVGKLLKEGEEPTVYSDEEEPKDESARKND

| SMILES | sensitivity of dap1Δ strain to the antibiotic [1] | effect of cold competitor on binding of [^3H] cholesterol [2] | effect of cold competitor on specific [^3H] progesterone binding [2] |
| --- | --- | --- | --- |
| C[C@@H]1[C@H](O)[C@@H](C)/C=C/C=C/C=C/C=C/C=C/C=C/C=C/[C@H](O[C@@H]2O[C@H](C)[C@@H](O)[C@H](N)[C@@H]2O)C[C@@H]2O[C@](O)(C[C@@H](O)C[C@@H](O)[C@H](O)CC[C@@H](O)C[C@@H](O)CC(=O)O[C@H]1C)C[C@H](O)[C@H]2C(=O)O [amphotericin B] | resistant |  |  |
| CC(C)[C@@H](C)/C=C/[C@@H](C)[C@H]1CC[C@H]2C3=CC=C4C[C@@H](O)CC[C@]4(C)[C@H]3CC[C@]12C [ergosterol] |  | unaffected | reduced |
| C=CC1=C(C)c2cc3[n-]c(cc4[n-]c(cc5nc(cc1n2)C(C)=C5C=C)c(C)c4CCC(=O)O)c(CCC(=O)O)c3C.[Fe+2] [heme] |  | unaffected | reduced |
